According to the CheMixHub viscosity set:
Values joined by “and” are separate entries in the source; they are usually repeats but may differ in a detail not shown here. Equal values may be shown once.

Experiment: xn = mol fraction of the nth substance listed

O=C1O[C@H]([C@@H](O)CO)C(O)=C1O + O
Conditions	viscosity
293.15 K, 101 kPa, x1 = 0.00359	1.078 mPa·s and 1.081 mPa·s and 1.077 mPa·s
293.15 K, 101 kPa, x1 = 0.005375	1.124 mPa·s and 1.122 mPa·s and 1.122 mPa·s
293.15 K, 101 kPa, x1 = 0.007156	1.162 mPa·s
293.15 K, 101.3 kPa, x1 = 0.0001803	1.013 mPa·s
293.15 K, 101.3 kPa, x1 = 0.00036	1.021 mPa·s
293.15 K, 101.3 kPa, x1 = 0.0005398	1.029 mPa·s
298.15 K, 101 kPa, x1 = 0.000364	0.899 mPa·s and 0.8985 mPa·s
298.15 K, 101 kPa, x1 = 0.000657	0.904 mPa·s and 0.9039 mPa·s
298.15 K, 101 kPa, x1 = 0.001	0.823 mPa·s
298.15 K, 101 kPa, x1 = 0.00125	0.916 mPa·s and 0.9161 mPa·s
298.15 K, 101 kPa, x1 = 0.00155	0.922 mPa·s and 0.9216 mPa·s
298.15 K, 101 kPa, x1 = 0.001665	0.9245 mPa·s
298.15 K, 101 kPa, x1 = 0.001856	0.927 mPa·s and 0.9273 mPa·s
298.15 K, 101 kPa, x1 = 0.002776	0.9451 mPa·s
298.15 K, 101 kPa, x1 = 0.003	0.835 mPa·s
298.15 K, 101 kPa, x1 = 0.005	0.847 mPa·s
298.15 K, 101 kPa, x1 = 0.005396	0.9979 mPa·s
298.15 K, 101 kPa, x1 = 0.009999	1.1 mPa·s
298.15 K, 101.3 kPa, x1 = 0.0001803	0.905 mPa·s
298.15 K, 101.3 kPa, x1 = 0.00036	0.913 mPa·s
298.15 K, 101.3 kPa, x1 = 0.0005398	0.918 mPa·s
303.15 K, 101 kPa, x1 = 0.001798	0.8267 mPa·s and 0.825 mPa·s
303.15 K, 101 kPa, x1 = 0.0018	0.8248 mPa·s
303.15 K, 101 kPa, x1 = 0.00359	0.8564 mPa·s and 0.8524 mPa·s
303.15 K, 101 kPa, x1 = 0.005375	0.8897 mPa·s and 0.8876 mPa·s and 0.8876 mPa·s
303.15 K, 101 kPa, x1 = 0.007154	0.9213 mPa·s and 0.9197 mPa·s
303.15 K, 101 kPa, x1 = 0.007156	0.916 mPa·s
303.15 K, 101.3 kPa, x1 = 0.0001803	0.812 mPa·s
303.15 K, 101.3 kPa, x1 = 0.00036	0.817 mPa·s
303.15 K, 101.3 kPa, x1 = 0.0005398	0.821 mPa·s
308.15 K, 101 kPa, x1 = 0.000364	0.724 mPa·s and 0.7239 mPa·s
308.15 K, 101 kPa, x1 = 0.000657	0.728 mPa·s and 0.7282 mPa·s
308.15 K, 101 kPa, x1 = 0.0007676	0.7308 mPa·s
308.15 K, 101 kPa, x1 = 0.00125	0.738 mPa·s and 0.7377 mPa·s
308.15 K, 101 kPa, x1 = 0.00155	0.743 mPa·s and 0.7431 mPa·s
308.15 K, 101 kPa, x1 = 0.001665	0.7425 mPa·s
308.15 K, 101 kPa, x1 = 0.001856	0.748 mPa·s and 0.7477 mPa·s
308.15 K, 101 kPa, x1 = 0.002776	0.7609 mPa·s
308.15 K, 101 kPa, x1 = 0.005396	0.8018 mPa·s
308.15 K, 101 kPa, x1 = 0.006205	0.8139 mPa·s
308.15 K, 101 kPa, x1 = 0.009999	0.8791 mPa·s
308.15 K, 101.3 kPa, x1 = 0.0001803	0.733 mPa·s
308.15 K, 101.3 kPa, x1 = 0.00036	0.738 mPa·s
308.15 K, 101.3 kPa, x1 = 0.0005398	0.743 mPa·s
313.15 K, 101 kPa, x1 = 0.001798	0.6755 mPa·s and 0.6783 mPa·s
313.15 K, 101 kPa, x1 = 0.0018	0.6734 mPa·s
313.15 K, 101 kPa, x1 = 0.00359	0.6979 mPa·s
313.15 K, 101 kPa, x1 = 0.005375	0.7227 mPa·s and 0.7222 mPa·s
313.15 K, 101 kPa, x1 = 0.007154	0.7485 mPa·s and 0.7473 mPa·s
313.15 K, 101 kPa, x1 = 0.007156	0.7432 mPa·s
313.15 K, 101.3 kPa, x1 = 0.0001803	0.668 mPa·s
313.15 K, 101.3 kPa, x1 = 0.00036	0.671 mPa·s
313.15 K, 101.3 kPa, x1 = 0.0005398	0.676 mPa·s
318.15 K, 101 kPa, x1 = 0.000364	0.6 mPa·s and 0.5998 mPa·s
318.15 K, 101 kPa, x1 = 0.000657	0.604 mPa·s and 0.6039 mPa·s
318.15 K, 101 kPa, x1 = 0.0007676	0.6078 mPa·s
318.15 K, 101 kPa, x1 = 0.000952	0.608 mPa·s and 0.6081 mPa·s
318.15 K, 101 kPa, x1 = 0.00125	0.612 mPa·s and 0.6122 mPa·s
318.15 K, 101 kPa, x1 = 0.00155	0.616 mPa·s
318.15 K, 101 kPa, x1 = 0.001665	0.6147 mPa·s
318.15 K, 101 kPa, x1 = 0.001856	0.621 mPa·s
318.15 K, 101 kPa, x1 = 0.002776	0.6296 mPa·s
318.15 K, 101 kPa, x1 = 0.006205	0.6736 mPa·s
318.15 K, 101 kPa, x1 = 0.009999	0.725 mPa·s
323.15 K, 101 kPa, x1 = 0.001798	0.5655 mPa·s and 0.5637 mPa·s
323.15 K, 101 kPa, x1 = 0.0018	0.5616 mPa·s
323.15 K, 101 kPa, x1 = 0.00359	0.5832 mPa·s and 0.5805 mPa·s
323.15 K, 101 kPa, x1 = 0.005375	0.6022 mPa·s and 0.6013 mPa·s
323.15 K, 101 kPa, x1 = 0.007154	0.6221 mPa·s and 0.6216 mPa·s
323.15 K, 101 kPa, x1 = 0.007156	0.6179 mPa·s

[Cl-].[Cl-].[Sr+2] + O
Conditions	viscosity [mPa·s]
293.15 K, 100 kPa, x1 = 0.0048	1.08
293.15 K, 100 kPa, x1 = 0.01	1.172
293.15 K, 100 kPa, x1 = 0.016	1.283
293.15 K, 100 kPa, x1 = 0.0302	1.607
293.15 K, 100 kPa, x1 = 0.0452	2.065
293.15 K, 101.3 kPa, x1 = 0.0009	1.018
293.15 K, 101.3 kPa, x1 = 0.0018	1.032
293.15 K, 101.3 kPa, x1 = 0.00893	1.146
293.15 K, 101.3 kPa, x1 = 0.0177	1.312
293.15 K, 101.3 kPa, x1 = 0.02631	1.515
293.15 K, 101.3 kPa, x1 = 0.03478	1.722
293.15 K, 101.3 kPa, x1 = 0.0431	1.994
298.15 K, 100 kPa, x1 = 0.0048	0.9628
298.15 K, 100 kPa, x1 = 0.01	1.048
298.15 K, 100 kPa, x1 = 0.016	1.152
298.15 K, 100 kPa, x1 = 0.0302	1.447
298.15 K, 100 kPa, x1 = 0.0452	1.862
298.15 K, 101.3 kPa, x1 = 0.0009	0.9055
298.15 K, 101.3 kPa, x1 = 0.0018	0.9188
298.15 K, 101.3 kPa, x1 = 0.00893	1.025
298.15 K, 101.3 kPa, x1 = 0.0177	1.179
298.15 K, 101.3 kPa, x1 = 0.02631	1.364
298.15 K, 101.3 kPa, x1 = 0.03478	1.552
298.15 K, 101.3 kPa, x1 = 0.0431	1.797
303.15 K, 101.3 kPa, x1 = 0.0009	0.8117
303.15 K, 101.3 kPa, x1 = 0.0018	0.8241
303.15 K, 101.3 kPa, x1 = 0.00893	0.9228
303.15 K, 101.3 kPa, x1 = 0.0177	1.065
303.15 K, 101.3 kPa, x1 = 0.02631	1.236
303.15 K, 101.3 kPa, x1 = 0.03478	1.408
303.15 K, 101.3 kPa, x1 = 0.0431	1.63
308.15 K, 101.3 kPa, x1 = 0.0009	0.7325
308.15 K, 101.3 kPa, x1 = 0.0018	0.7443
308.15 K, 101.3 kPa, x1 = 0.00893	0.8365
308.15 K, 101.3 kPa, x1 = 0.0177	0.9688
308.15 K, 101.3 kPa, x1 = 0.02631	1.127
308.15 K, 101.3 kPa, x1 = 0.03478	1.284
308.15 K, 101.3 kPa, x1 = 0.0431	1.487
313.2 K, 100 kPa, x1 = 0.0302	1.096
313.56 K, 100 kPa, x1 = 0.0048	0.7071
313.9 K, 100 kPa, x1 = 0.01	0.7701
314.54 K, 100 kPa, x1 = 0.0452	1.374
315.86 K, 100 kPa, x1 = 0.016	0.8261
318.15 K, 101.3 kPa, x1 = 0.0009	0.6082
318.15 K, 101.3 kPa, x1 = 0.0018	0.6186
318.15 K, 101.3 kPa, x1 = 0.00893	0.6997
318.15 K, 101.3 kPa, x1 = 0.0177	0.8151
318.15 K, 101.3 kPa, x1 = 0.02631	0.9514
318.15 K, 101.3 kPa, x1 = 0.03478	1.086
318.15 K, 101.3 kPa, x1 = 0.0431	1.258

[K+].[O-][Cl+2]([O-])[O-] + O
viscosity [mPa·s], 100 kPa
Conditions	293.15 K	298.15 K	303.15 K	308.15 K	313.15 K	318.15 K
x1 = 0.000182	0.995	0.888	0.799	0.725	0.661	0.607
x1 = 0.0018	0.984	0.878	0.789	0.717	0.655	0.602
x1 = 0.003608	0.979	0.874	0.788	0.717	0.656	0.603
x1 = 0.005413	0.977	0.873	0.788	0.718	0.656	0.604
x1 = 0.00717	0.977	0.876	0.791	0.72	0.659	0.608
x1 = 0.008941	0.983	0.881	0.797	0.725	0.665	0.613

CCN(CC)CCO + O=C1CCCCC1
viscosity [mPa·s], 101 kPa
Conditions	298.15 K	308.15 K	318.15 K
x2 = 0.0501	3.267	2.46	1.885
x2 = 0.1004	3.133	2.336	1.766
x2 = 0.15	3.002	2.228	1.663
x2 = 0.2	2.878	2.126	1.564
x2 = 0.3002	2.662	1.939	1.417
x2 = 0.4	2.49	1.799	1.309
x2 = 0.5	2.344	1.703	1.24
x2 = 0.5999	2.234	1.647	1.224
x2 = 0.6503	2.191	1.639	1.229
x2 = 0.6995	2.159	1.639	1.249
x2 = 0.7997	2.127	1.663	1.306
x2 = 0.8997	2.121	1.717	1.389
x2 = 0.9497	2.133	1.747	1.443

OC1CCCCC1 + O=C1CCCCC1
298.15 K, 101.3 kPa
Conditions	viscosity [mPa·s]
x2 = 0.2	13.85
x2 = 0.4	6.29
x2 = 0.51	4.54
x2 = 0.6	3.54
x2 = 0.8	2.38

CCCCCCCCCCCCCC[P+](CCCCCC)(CCCCCC)CCCCCC.c1ccc2[n-]nnc2c1 + O=C=O
Conditions	viscosity [mPa·s]
298.15 K, 100 kPa, x2 = 0.19	443

CCCCN(CCC#N)CCCC + O=S=O
303.15 K, 100 kPa
Conditions	viscosity [mPa·s]
x2 = 0.17	4.1
x2 = 0.34	8
x2 = 0.45	13.8

OC1CCCCC1 + OC1CCCC1
viscosity [mPa·s], 100 kPa
Conditions	x2 = 0.1	x2 = 0.3	x2 = 0.5	x2 = 0.7	x2 = 0.9
303.15 K	34.92	23.18	16.54	12.51	9.2
308.15 K	27.86	19.17	13.78	10.67	7.88
313.15 K	21.32	15.13	11.11	8.78	6.57
318.16 K	16.48	11.96	9.04	7.2	5.49
